In patent US9701670B2, “Pyrazolyl-ureas as kinase inhibitors” (RESPIVERT LIMITED, priority 2013, dated 2017):

Columns and labels:
[1] = test system: Differentiated U937 cells; test: (l) Cell viability: MTT assay; type: cell-based, human; details: 1 μg/mL
Experimental: Differentiated U937 cells are pre-incubated with each test compound (final concentration 1 μg/mL or 10 μg/mL in 200 μL media indicated below) under two protocols: the first for 4 hr in 5% FCS RPMI1640 media and the second in 10% FCS RPMI1640 media for 24 h. The supernatant is replaced with new media (200 μL) and MTT stock solution (10 μL, 5 mg/mL) is added to each well. After incubation for 1 hr the media are removed, DMSO (200 μL) is added to each well and the plates are shaken lightly for 1 hr prior to reading the absorbance at 550 nm. The percentage loss of cell viability is calculated for each well relative to vehicle (0.5% DMSO) treatment. Consequently an apparent increase in cell viability for drug treatment relative to vehicle is tabulated as a negative percentage.

[2] = biological target: p38 MAPKα isoform (MAPK14) (Homo sapiens (Human), UniProt Q16539); test: p38 MAPKα enzyme inhibition (FRET, Z-LYTE), Method 1; type: biochemical; details: Method 1 (Table 4a1)
Experimental: The enzyme inhibitory activities of compounds disclosed herein are determined by FRET using synthetic peptides labelled with both donor and acceptor fluorophores (Z-LYTE, Invitrogen Ltd., Paisley, UK).
The inhibitory activities of test compounds against the p38 MAPKα isoform (MAPK14: Invitrogen), are evaluated indirectly by determining the level of activation/phosphorylation of the down-stream molecule, MAPKAP-K2. The p38 MAPKα protein (80 ng/mL, 2.5 μL) is mixed with the test compound (2.5 μL of either 4 μg/mL, 0.4 μg/mL, 0.04 μg/mL or 0.004 μg/mL) for 2 hr at RT. […] The mixture is incubated for 1 hr at RT. Development reagent (protease, 5 μL) is added for 1 hr prior to detection in a fluorescence microplate reader (Varioskan® Flash, ThermoFisher Scientific).
In all cases, the site-specific protease cleaves non-phosphorylated peptide only and eliminates the FRET signal. Phosphorylation levels of each reaction are calculated using the ratio of coumarin emission (donor) over fluorescein emission (acceptor), for which high ratios indicate high phosphorylation and low ratios indicate low phosphorylation levels.

Chain of p38 MAPKα isoform (MAPK14) (Q16539 whole entry, canonical isoform): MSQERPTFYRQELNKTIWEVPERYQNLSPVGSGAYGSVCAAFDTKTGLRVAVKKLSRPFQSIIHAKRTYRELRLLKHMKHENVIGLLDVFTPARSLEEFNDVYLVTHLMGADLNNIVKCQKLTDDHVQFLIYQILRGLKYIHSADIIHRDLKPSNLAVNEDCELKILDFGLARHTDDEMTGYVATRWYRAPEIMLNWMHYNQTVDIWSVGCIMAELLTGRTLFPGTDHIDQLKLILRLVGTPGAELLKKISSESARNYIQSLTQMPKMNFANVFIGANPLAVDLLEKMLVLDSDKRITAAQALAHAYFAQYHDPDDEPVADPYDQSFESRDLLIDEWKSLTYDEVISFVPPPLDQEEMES

SMILES	Cell viability at time point in d-U937 cells 4 h [1]	Cell viability at time point in d-U937 cells 24 h [1]	IC50 [2]
COc1cc(C(=O)NCCO)ccc1Nc1nccc(Oc2ccc(NC(=O)Nc3cc(C(C)(C)C)nn3-c3ccc(C)cc3)c3ccccc23)n1 [Example 4, 4-((4-((4-(3-(3-(tert-Butyl)-1-(p-tolyl)-1H-pyrazol-5-yl)ureido)naphthalen-1-yl)oxy)pyrimidin-2-yl)amino)-N-(2-hydroxyethyl)-3-methoxybenzamide]	−ve (−ve and +ve indicate that the value is below and above respectively, the no significant effect threshold, defined as 30% inhibition at 1 μg/mL at the time point indicated.)	−ve (−ve and +ve indicate that the value is below and above respectively, the no significant effect threshold, defined as 30% inhibition at 1 μg/mL at the time point indicated.)	26 nM
COc1cc(Nc2nccc(Oc3ccc(NC(=O)Nc4cc(C(C)C)nn4-c4ccc(C)cc4)c4ccccc34)n2)cc(C(=O)NCCN(C)C)c1 [Example 5, N-(2-(Dimethylamino)ethyl)-3-((4-((4-(3-(3-isopropyl-1-(p-tolyl)-1H-pyrazol-5-yl)ureido)naphthalen-1-yl)oxy)pyrimidin-2-yl)amino)-5-methoxybenzamide]	−ve (−ve and +ve indicate that the value is below and above respectively, the no significant effect threshold, defined as 30% inhibition at 1 μg/mL at the time point indicated.)	−ve (−ve and +ve indicate that the value is below and above respectively, the no significant effect threshold, defined as 30% inhibition at 1 μg/mL at the time point indicated.)	1 nM
COc1cc(Nc2nccc(Oc3ccc(NC(=O)Nc4cc(C(C)C)nn4-c4ccc(OC)nc4)c4ccccc34)n2)cc(C(=O)NCCN2CCOCC2)c1 [Example 10, 3-((4-((4-(3-(3-Isopropyl-1-(6-methoxypyridin-3-yl)-1H-pyrazol-5-yl)ureido)naphthalen-1-yl)oxy)pyrimidin-2-yl)amino)-5-methoxy-N-(2-morpholinoethyl)benzamide]	−ve (−ve and +ve indicate that the value is below and above respectively, the no significant effect threshold, defined as 30% inhibition at 1 μg/mL at the time point indicated.)	−ve (−ve and +ve indicate that the value is below and above respectively, the no significant effect threshold, defined as 30% inhibition at 1 μg/mL at the time point indicated.)	6 nM
COc1cc(Nc2nccc(Oc3ccc(NC(=O)Nc4cc(C(C)C)nn4-c4ccc(C)cc4)c4ccccc34)n2)cc(C(=O)N2CCOCC2)c1 [Example 12, 1-(3-Isopropyl-1-(p-tolyl)-1H-pyrazol-5-yl)-3-(4-((2-((3-methoxy-5-(morpholine-4-carbonyl)phenyl)amino)pyrimidin-4-yl)oxy)naphthalen-1-yl)urea]	−ve (−ve and +ve indicate that the value is below and above respectively, the no significant effect threshold, defined as 30% inhibition at 1 μg/mL at the time point indicated.)	−ve (−ve and +ve indicate that the value is below and above respectively, the no significant effect threshold, defined as 30% inhibition at 1 μg/mL at the time point indicated.)	6 nM
COc1ccc(-n2nc(C(C)C)cc2NC(=O)Nc2ccc(Oc3cc(Nc4cc(OC)cc(C(=O)NCCN5CCOCC5)c4)ncn3)c3ccccc23)cc1 [Example 14, 3-((6-((4-(3-(3-isopropyl-1-(4-methoxyphenyl)-1H-pyrazol-5-yl)ureido)naphthalen-1-yl)oxy)pyrimidin-4-yl)amino)-5-methoxy-N-(2-morpholinoethyl)benzamide]	−ve (−ve and +ve indicate that the value is below and above respectively, the no significant effect threshold, defined as 30% inhibition at 1 μg/mL at the time point indicated.)	+ve (−ve and +ve indicate that the value is below and above respectively, the no significant effect threshold, defined as 30% inhibition at 1 μg/mL at the time point indicated.)	< 1 nM
COc1ccc(-n2nc(C(C)C)cc2NC(=O)Nc2ccc(Oc3ccnc(Nc4cc(OC)cc(C(=O)NCCN5CCOCC5)c4)c3)c3ccccc23)cc1 [Example 15, 3-((4-((4-(3-(3-isopropyl-1-(4-methoxyphenyl)-1H-pyrazol-5-yl)ureido)naphthalen-1-yl)oxy)pyridin-2-yl)amino)-5-methoxy-N-(2-morpholinoethyl)benzamide]	−ve (−ve and +ve indicate that the value is below and above respectively, the no significant effect threshold, defined as 30% inhibition at 1 μg/mL at the time point indicated.)	−ve (−ve and +ve indicate that the value is below and above respectively, the no significant effect threshold, defined as 30% inhibition at 1 μg/mL at the time point indicated.)	7 nM
CNC(=O)c1cccc(Nc2nccc(Oc3ccc(NC(=O)Nc4cc(C(C)(C)C)nn4-c4ccc(C)cc4)c4ccccc34)n2)c1 [Example 16, 3-((4-((4-(3-(3-(tert-butyl)-1-(p-tolyl)-1H-pyrazol-5-yl)ureido)naphthalen-1-yl)oxy)pyrimidin-2-yl)amino)-N-methylbenzamide]	−ve (−ve and +ve indicate that the value is below and above respectively, the no significant effect threshold, defined as 30% inhibition at 1 μg/mL at the time point indicated.)	−ve (−ve and +ve indicate that the value is below and above respectively, the no significant effect threshold, defined as 30% inhibition at 1 μg/mL at the time point indicated.)	34 nM
CCCNC(=O)c1cccc(Nc2nccc(Oc3ccc(NC(=O)Nc4cc(C(C)(C)C)nn4-c4ccc(OC)cc4)c4ccccc34)n2)c1 [Example 17, 3-(4-(4-(3-(3-tert-butyl-1-(4-methoxyphenyl)-1H-pyrazol-5-yl)ureido)naphthalen-1-yloxy)pyrimidin-2-ylamino)-N-propylbenzamide]	−ve (−ve and +ve indicate that the value is below and above respectively, the no significant effect threshold, defined as 30% inhibition at 1 μg/mL at the time point indicated.)	−ve (−ve and +ve indicate that the value is below and above respectively, the no significant effect threshold, defined as 30% inhibition at 1 μg/mL at the time point indicated.)	54 nM
Cc1ccc(-n2nc(C(C)(C)C)cc2NC(=O)Nc2ccc(Oc3ccnc(Nc4cccc(C(=O)NCCN(C)C)c4)n3)c3ccccc23)cc1 [Example 18, 3-((4-((4-(3-(3-(tert-butyl)-1-(p-tolyl)-1H-pyrazol-5-yl)ureido)naphthalen-1-yl)oxy)pyrimidin-2-yl)amino)-N-(2-(dimethylamino)ethyl)benzamide]	−ve (−ve and +ve indicate that the value is below and above respectively, the no significant effect threshold, defined as 30% inhibition at 1 μg/mL at the time point indicated.)	−ve (−ve and +ve indicate that the value is below and above respectively, the no significant effect threshold, defined as 30% inhibition at 1 μg/mL at the time point indicated.)	12 nM
COc1ccc(-n2nc(C(C)C)cc2NC(=O)Nc2ccc(Oc3ccnc(Nc4cccc(C(=O)NCCN5CCOCC5)c4)n3)c3ccccc23)cc1 [Example 20, 3-((4-((4-(3-(3-isopropyl-1-(4-methoxyphenyl)-1H-pyrazol-5-yl)ureido)naphthalen-1-yl)oxy)pyrimidin-2-yl)amino)-N-(2-morpholinoethyl)benzamide]	−ve (−ve and +ve indicate that the value is below and above respectively, the no significant effect threshold, defined as 30% inhibition at 1 μg/mL at the time point indicated.)	−ve (−ve and +ve indicate that the value is below and above respectively, the no significant effect threshold, defined as 30% inhibition at 1 μg/mL at the time point indicated.)	5 nM
COc1ccc(-n2nc(C(C)(C)C)cc2NC(=O)Nc2ccc(Oc3ccnc(Nc4cccc(C(=O)NCCN5CCOCC5)c4)n3)c3ccccc23)cc1 [Example 21, 3-((4-((4-(3-(3-(tert-butyl)-1-(4-methoxyphenyl)-1H-pyrazol-5-yl)ureido)naphthalen-1-yl)oxy)pyrimidin-2-yl)amino)-N-(2-morpholinoethyl)benzamide]	−ve (−ve and +ve indicate that the value is below and above respectively, the no significant effect threshold, defined as 30% inhibition at 1 μg/mL at the time point indicated.)	−ve (−ve and +ve indicate that the value is below and above respectively, the no significant effect threshold, defined as 30% inhibition at 1 μg/mL at the time point indicated.)	10 nM
